From patent publication US6864244B2, “Anhydrous crystalline 1-[4(S)-azido-2(S),3(R)-dihydroxy-4-(hydroxymethyl)-1(R)-cyclopentyl]cytosine hemisulfate as useful as an antiviral agent” (Roche Palo Alto LLC, priority 2002, dated 2005)
Where two headings read alike, the source gives them in different places. One block for each compound: values may come before it.

What was measured:
Format in all cases: physicochemical
[1] = Hygroscopicity at 93% relative humidity (weight gain, HPLC assay)
Method: (§1) A small amount of the polymorphic Form C crystal (about 10 mg) was weighed into a weighing bottle and placed in a chamber with controlled relative humidity for 4 weeks and the percentage of water absorbed was calculated form the weight gain. The sample was also assayed by HPLC against an external standard on a Waters 2690 HPLC at 276 nm with a Zorbax SB-Phenyl column. The mobile phase is a gradient run at 1 mL/min consisting of acetonitrile/water with 10 mM heptane sulfonic acid, 0.1% phosphoric acid in both. The gradient is run as 10% ACN to 100% in 30 min. The data was processed using Waters Millennium software version 3.2. The thermal stability also was determined at 60° C. and at 40° C./75% relative humidity. The purity of the sample was determined by assaying weighed aliquots by HPLC against an external standard.

[2] = Polymorph transformation in the presence of moisture
[3] = Differential scanning calorimetry (DSC), thermal properties
[4] = Accelerating rate calorimetric (ARC) determination (adiabatic calorimetry conditions)
[5] = Thermal stability on storage at 60° C. and at 40° C./75% relative humidity (HPLC assay against external standard); conditions: for ASSAY: HPLC
Method: as §1

- hygroscopicity relative to the free base [1]: less hygroscopic than the free base
- weight gain on storage ([1]; stored at high relative humidity): No weight gain
Compound: [N-]=[N+]=N[C@]1(CO)O[C@@H](n2ccc(N)nc2=O)[C@H](O)[C@@H]1O [Ia]

- polymorphic transformation [2]: transformed into Form C
- exothermic decomposition onset temperature [3]: approximately 185 °C
- exothermic decomposition onset temperature ([3]; listed as Form A polymorph of Ia): 185 °C
Compound: [N-]=[N+]=N[C@]1(CO)O[C@@H](n2ccc(N)nc2=O)[C@H](O)[C@@H]1O [Form A of Ia]

- polymorphic transformation [2]: transformed into Form C
- exothermic decomposition onset temperature [3]: approximately 189 °C
- exothermic decomposition onset temperature ([3]; listed as Form B polymorph of Ia): 189 °C
Compound: [N-]=[N+]=N[C@]1(CO)O[C@@H](n2ccc(N)nc2=O)[C@H](O)[C@@H]1O [Form B of Ia]

- Adiabatic Temperature Rise [4]: 265 °C
- corrected exothermic decomposition onset temperature [4]: 152 °C
- enthalpy of decomposition exotherm [4]: -132 cal/g
- APPEARANCE ([1]; 93% RH, 4 weeks): white powder
- POLYMORPH ([1]; 93% RH, 4 weeks): Form C
- WEIGHT GAIN ([1]; 93% RH, 4 weeks): 0%
- ASSAY ([1]; 93% RH, 4 weeks, HPLC): 99.9
- hygroscopicity ([1]; 93% relative humidity, 4 weeks): not hygroscopic
- APPEARANCE ([5]; 40° C./75% RH, 1 week): white powder
- POLYMORPH ([5]; 40° C./75% RH, 1 week): Form C
- ASSAY ([5]; 40° C./75% RH, 1 week): 99.9
- APPEARANCE ([5]; 40° C./75% RH, 2 weeks): white powder
- ASSAY ([5]; 40° C./75% RH, 2 weeks): 99.9
- APPEARANCE ([5]; 40° C./75% RH, 4 weeks): white powder
- POLYMORPH ([5]; 40° C./75% RH, 4 weeks): Form C
- ASSAY ([5]; 40° C./75% RH, 4 weeks): 99.9
- APPEARANCE ([5]; 60° C., 1 week): white powder
- POLYMORPH ([5]; 60° C., 1 week): Form C
- ASSAY ([5]; 60° C., 1 week): 99.9
- APPEARANCE ([5]; 60° C., 2 weeks): white powder
- ASSAY ([5]; 60° C., 2 weeks): 99.9
- APPEARANCE ([5]; 60° C., 4 weeks): white powder
- POLYMORPH ([5]; 60° C., 4 weeks): Form C
- ASSAY ([5]; 60° C., 4 weeks): 99.9
- thermal stability ([5]; at 40 and 60° C. over the duration of the assay): thermal stable
- exothermic decomposition onset temperature [3]: approximately 210 °C
- exothermic decomposition onset temperature ([3]; listed as Form C polymorph of Ia): 210 °C
Compound: [N-]=[N+]=N[C@]1(CO)O[C@@H](n2ccc(N)nc2=O)[C@H](O)[C@@H]1O [Form C of Ia]
